Experimental data reported in patent US20220296613A1, “FOOD-INDEPENDENT DOSING OF CV-10155 TO TREAT GABAA DISORDERS” (priority 2021, published 2022).
pEC50: −log10 of the molar value. Where two headings read alike, the source gives them in different places.

Experiments:
in vivo = conditions: beagle, dog, iv, 1 mg/kg
sleep states = assay: Sleep states by electroencephalogram (EEG) in rats; type: in vivo
Description: The effect of CV-10155 on various sleep states was analyzed in rats. Rats were given various doses of CV-10155, and sleep states were analyzed by electroencephalogram (EEG).
FIG. 17 is a hypnogram showing the percentage of time spent in different sleep states by rats given drug vehicle. Purple bars represent REM sleep; green bars represent non-REM sleep; blue bars represent quiet waking; and red bars represent active waking.
FIG. 18 is a hypnogram showing the percentage of time spent in different sleep states by rats given 1 mg/kg CV-10155. Purple bars represent REM sleep; green bars represent non-REM sleep; blue bars represent quiet waking; and red bars represent active waking.
FIG. 19 is a hypnogram showing the percentage of time spent in different sleep states by rats given 3 mg/kg CV-10155. Purple bars represent REM sleep; green bars represent non-REM sleep; blue bars represent quiet waking; and red bars represent active waking.
FIG. 20 is a hypnogram showing the percentage of time spent in different sleep states by rats given 6 mg/kg CV-10155. Purple bars represent REM sleep; green bars represent non-REM sleep; blue bars represent quiet waking; and red bars represent active waking.
FIG. 21 is a hypnogram showing the percentage of time spent in different sleep states by rats given 10 mg/kg CV-10155. […]

[1] = test system: models of depression, anxiety, seizure, and EEG; assay: Preclinical rodent models of seizure, anxiety, depression and EEG biomarker (overall); type: in vivo
[2] = Pharmacokinetics of CV-10155 in preclinical rodent studies; conditions: for AUC(0-inf) / Cmax / Tmax: rodent, in vivo, po
clinical [3] = conditions: human, in vivo
clinical [4] = conditions: human, in vivo, 60 mg
[5] = not given; remark: listed apart in the source
α1β2γ2 GABAA receptors = α1β2γ2 GABAA receptors (Homo sapiens, UniProt P14867+P47870); assay: Synchropatch electrophysiology, potentiation of synaptic GABAA receptors; type: cell-based
α4β3δ GABAA receptors = α4β3δ GABAA receptors (Homo sapiens, UniProt P28472+P48169); assay: Synchropatch electrophysiology, potentiation of extra synaptic GABAA receptors; type: cell-based
[6] = 1 mg/kg (minimal effective dose), study including male and female subjects
[7] = 3 mg/kg, study including male and female subjects
[8] = 5 mg/kg, study including only male subjects
[9] = 10 mg/kg, study including male and female subjects
[10] = HV, 60 mg evening dosing (n = 12)
[11] = humans, 60 mg, day 7 MAD, morning dosing, fasted
[12] = humans, 60 mg, evening, fed state, N = 9
[13] = humans, 60 mg, morning, fasted state, N = 9
[14] = humans, evening, fed state, subject a, dosing day 1
[15] = humans, evening, fed state, subject l, dosing day 1
[16] = humans, evening, fed state, subject o, dosing day 3
[17] = humans, evening, fed state, subject p, dosing day 2
[18] = humans, evening, fed state, subject p, dosing day 7
[19] = humans, evening, fed state, subject p, dosing day 8
[20] = humans, evening, fed state, subject v, dosing day 4

Sequence of α1β2γ2 GABAA receptors (P14867 28-456): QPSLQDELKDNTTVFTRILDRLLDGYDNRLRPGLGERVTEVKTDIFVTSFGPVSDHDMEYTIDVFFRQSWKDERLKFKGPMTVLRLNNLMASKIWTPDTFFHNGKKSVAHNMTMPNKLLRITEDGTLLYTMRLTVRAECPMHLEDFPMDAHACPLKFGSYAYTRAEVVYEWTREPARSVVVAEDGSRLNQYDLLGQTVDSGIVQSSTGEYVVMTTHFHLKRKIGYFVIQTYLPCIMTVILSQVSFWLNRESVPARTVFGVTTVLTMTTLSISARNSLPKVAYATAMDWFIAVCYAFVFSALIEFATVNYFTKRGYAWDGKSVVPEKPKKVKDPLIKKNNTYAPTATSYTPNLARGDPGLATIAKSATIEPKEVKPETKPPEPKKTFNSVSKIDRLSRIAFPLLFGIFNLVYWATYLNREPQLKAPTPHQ
Sequence of α1β2γ2 GABAA receptors (P47870 25-512 limits assumed): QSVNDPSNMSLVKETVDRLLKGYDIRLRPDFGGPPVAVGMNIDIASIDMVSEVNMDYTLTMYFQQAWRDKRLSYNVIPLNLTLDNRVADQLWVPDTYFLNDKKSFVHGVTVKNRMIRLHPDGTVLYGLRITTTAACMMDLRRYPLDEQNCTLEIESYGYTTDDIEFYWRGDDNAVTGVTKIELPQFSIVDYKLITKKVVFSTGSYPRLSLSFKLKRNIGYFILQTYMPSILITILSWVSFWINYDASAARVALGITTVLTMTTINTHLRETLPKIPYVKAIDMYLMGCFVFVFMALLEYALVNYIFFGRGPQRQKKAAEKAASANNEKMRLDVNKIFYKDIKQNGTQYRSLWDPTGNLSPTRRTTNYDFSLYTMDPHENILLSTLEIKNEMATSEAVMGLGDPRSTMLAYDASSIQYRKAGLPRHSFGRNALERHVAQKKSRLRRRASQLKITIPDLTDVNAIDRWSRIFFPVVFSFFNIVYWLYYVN
Sequence of α1β2γ2 GABAA receptors (P18507 40-475 partner): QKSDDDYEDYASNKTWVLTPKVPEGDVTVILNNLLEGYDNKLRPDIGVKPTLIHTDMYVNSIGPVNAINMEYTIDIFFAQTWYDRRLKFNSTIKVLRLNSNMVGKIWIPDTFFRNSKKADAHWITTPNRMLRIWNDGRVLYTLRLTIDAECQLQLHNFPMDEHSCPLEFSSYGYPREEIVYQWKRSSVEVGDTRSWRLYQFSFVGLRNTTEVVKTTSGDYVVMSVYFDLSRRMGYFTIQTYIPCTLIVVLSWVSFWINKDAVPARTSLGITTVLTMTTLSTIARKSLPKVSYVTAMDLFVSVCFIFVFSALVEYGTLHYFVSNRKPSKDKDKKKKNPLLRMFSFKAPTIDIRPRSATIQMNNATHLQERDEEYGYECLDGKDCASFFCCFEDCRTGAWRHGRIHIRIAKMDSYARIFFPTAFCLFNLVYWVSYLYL
Sequence of α4β3δ GABAA receptors (P48169 36-554): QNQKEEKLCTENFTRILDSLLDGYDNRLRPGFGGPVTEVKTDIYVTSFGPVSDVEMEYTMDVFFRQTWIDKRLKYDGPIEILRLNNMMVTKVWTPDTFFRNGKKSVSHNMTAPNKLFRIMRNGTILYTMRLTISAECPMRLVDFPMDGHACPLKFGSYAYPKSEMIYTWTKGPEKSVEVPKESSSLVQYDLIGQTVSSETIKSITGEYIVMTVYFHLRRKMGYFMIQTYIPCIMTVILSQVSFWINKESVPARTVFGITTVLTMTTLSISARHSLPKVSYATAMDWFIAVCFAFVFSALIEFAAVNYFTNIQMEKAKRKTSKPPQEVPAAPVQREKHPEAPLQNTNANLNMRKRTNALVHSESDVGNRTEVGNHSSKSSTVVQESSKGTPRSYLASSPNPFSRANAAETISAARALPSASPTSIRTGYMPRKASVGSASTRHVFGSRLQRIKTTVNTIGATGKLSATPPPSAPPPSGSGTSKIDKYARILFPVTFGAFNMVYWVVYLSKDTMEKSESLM
Sequence of α4β3δ GABAA receptors (P28472 26-473): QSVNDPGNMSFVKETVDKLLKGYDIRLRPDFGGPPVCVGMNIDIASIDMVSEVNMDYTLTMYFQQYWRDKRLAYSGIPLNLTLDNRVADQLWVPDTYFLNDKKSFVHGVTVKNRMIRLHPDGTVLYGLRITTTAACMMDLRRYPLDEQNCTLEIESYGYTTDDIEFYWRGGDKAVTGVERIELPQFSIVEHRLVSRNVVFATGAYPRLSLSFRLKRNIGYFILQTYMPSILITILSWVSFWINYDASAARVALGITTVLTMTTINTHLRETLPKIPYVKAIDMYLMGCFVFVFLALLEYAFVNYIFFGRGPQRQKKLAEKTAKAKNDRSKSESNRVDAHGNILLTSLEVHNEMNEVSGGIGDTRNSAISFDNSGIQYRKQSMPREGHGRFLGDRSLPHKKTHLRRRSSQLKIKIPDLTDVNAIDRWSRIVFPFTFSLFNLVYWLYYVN
Sequence of α4β3δ GABAA receptors (O14764 25-452 partner): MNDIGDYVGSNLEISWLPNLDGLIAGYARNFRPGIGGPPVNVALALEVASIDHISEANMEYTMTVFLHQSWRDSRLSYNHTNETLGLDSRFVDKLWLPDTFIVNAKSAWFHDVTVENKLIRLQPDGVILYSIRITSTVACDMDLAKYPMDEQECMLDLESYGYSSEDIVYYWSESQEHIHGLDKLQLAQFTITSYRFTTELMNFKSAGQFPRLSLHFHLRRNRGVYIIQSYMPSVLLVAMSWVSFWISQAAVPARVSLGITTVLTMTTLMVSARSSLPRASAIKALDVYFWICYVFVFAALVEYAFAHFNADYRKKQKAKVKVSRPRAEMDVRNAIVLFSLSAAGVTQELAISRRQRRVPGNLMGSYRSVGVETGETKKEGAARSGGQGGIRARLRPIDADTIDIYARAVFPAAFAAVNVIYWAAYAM

For `C[C@@]1(O)CC[C@@]2(C)[C@@H](CC[C@@H]3[C@@H]2CC[C@]2(C)[C@@H](C(=O)Cn4cc(C#N)cn4)CC[C@@H]32)C1` [CV-10155, 1-[2-[(3R,5S,8R,9S,10S,13S,14S,17S)-3-hydroxy-3,10,13-trimethyl-1,2,4,5,6,7,8,9,11,12,14,15,16,17-tetradecahydrocyclopenta[a]phenanthren-17-yl]-2-oxoethyl]pyrazole-4-carbonitrile], the Vd (in vivo) was 1.92 L/kg, the clearance (in vivo) was 2.17 mL/min/kg and the half-life (in vivo) was 834 min. For the same molecule, the “dose producing an increase in non-REM sleep” value (sleep states; EEG, 1, 3, 6, 10 mg/kg tested) was at least 3 mg/kg, the “target engagement (EEG)” value (sleep states; within well-tolerated and efficacious dose ranges) was “dose-dependent target engagement” and the “dose proportionality of AUC and Cmax” value (human, in vivo, po) was “dose-proportional increase”. The “MTD, single ascending dose (SAD)” value (humans) was “ETX-155 135 mg SAD MTD”, the dose-limiting adverse event (humans) was “Ataxia” and the “effect of food consumption on absorption” value (humans, oral 30 mg, fed vs fasted) was “no clinically meaningful effect”. The adverse events observed (humans, single oral dose, 200 mg) was “ataxia, tremor and tachycardia”, the “inter-subject variability (CV) of AUC and Cmax” value (humans, single oral dose, 5-200 mg dose range) was at most 30% and the dose-limiting adverse events (humans, single oral dose, range of 5-135 mg) was “No dose-limiting adverse events were observed”. The “most common adverse events” value (humans, single oral dose, mild to moderate, only observed at the highest doses) was “Dizziness and somnolence”, the “dose from which robust efficacy was observed” value ([1]; most rodent models of seizure) was at least 3 mg/kg and the “minimal effective dose (MED)” value ([1]; rodent models of seizure) was 1 mg/kg. The 1/2 life [2, 6] was 3.66-6.82, the “Oral BA” value [2, 6] was 58.6-92.4 and the “Oral BA” value ([2]; 2 mg/kg, study including only male subjects) was 47.2. For the same molecule, the 1/2 life [2, 7] was 2.84-4.96, the “Oral BA” value [2, 7] was 53-92.3 and the 1/2 life [2, 8] was 4.19. For the same molecule, the “Oral BA” value [2, 8] was 58.1, the 1/2 life [2, 9] was 3.23-4.80 and the “Oral BA” value [2, 9] was 79.7-100. It also gave an AUC(0-inf) ([2]; both, 1 mg/kg) of 508 to 1300 ng·h/mL, a Cmax ([2]; both, 1 mg/kg) of 84.4 to 128 ng/mL and a Tmax ([2]; both, 1 mg/kg) of 1.5 to 2 h. It also gave an AUC(0-inf) ([2]; both, 3 mg/kg) of 1380 to 3900 ng·h/mL, a Cmax ([2]; both, 3 mg/kg) of 270 to 440 ng/mL and a Tmax ([2]; both, 3 mg/kg) of 1.25 to 2.5 h. It also gave an AUC(0-inf) ([2]; both, 10 mg/kg) of 6850 to 14700 ng·h/mL, a Cmax ([2]; both, 10 mg/kg) of 1160 ng/mL and a Tmax ([2]; both, 10 mg/kg) of 1.25 to 2.25 h. It also gave an AUC(0-inf) ([2]; male, 2 mg/kg) of 1320 ng·h/mL, a Cmax ([2]; male, 2 mg/kg) of 224 ng/mL and a Tmax ([2]; male, 2 mg/kg) of 1.7 h. It also gave an AUC(0-inf) ([2]; male, 5 mg/kg) of 2610 ng·h/mL, a Cmax ([2]; male, 5 mg/kg) of 499 ng/mL and a Tmax ([2]; male, 5 mg/kg) of 0.83 h. The AUC(0-inf) (clinical [3]; 135 mg) was 3660 ng·h/mL, the Cmax (clinical [3]; 135 mg) was 333 ng/mL and the Tmax (clinical [3]; 135 mg) was 2.83 h. For the same molecule, the half-life (clinical [3]; 135 mg) was 1500 min, the Tmax (clinical [3]; po) was 2 to 4 h and the half-life (clinical [3]; po) was 1440 to 1560 min. It also gave an AUC (clinical [4]) of 2900 ng·h/mL, a Cmax (clinical [4]) of 253 ng/mL and a Tmax (clinical [4]) of 3 h. For the same molecule, the half-life (clinical [4]) was 2070 min, the “Dizziness, AEs % of subjects” value [5, 10] was 16.7% and the “Headache, AEs % of subjects” value [5, 10] was 8.3%. The “Somnolence, AEs % of subjects” value [5, 10] was 8.3%, the “Racc AUC” value ([5]; human, in vivo, 60 mg) was 1.84 and the “ratio of Cmax/trough on day 7” value ([5]; humans, 60 mg daily in the evening in a fed state) was 3.47. For the same molecule, the “ratio of Cmax/trough on day 7” value ([5]; humans, 60 mg daily in the morning in a fasted state) was 6.09, the “tolerability profile compared to PRAX-114 and Sage-217” value ([5]; humans, 60 mg dosed in the evening) was “favorable tolerability profile compared to PRAX-114 and one comparable to that of Sage-217” and the “exposure levels in humans vs 30 mg doses of Sage-217” value ([5]; humans, 60 mg doses) was “higher exposure levels”. The “absorption, morning fasted vs evening fed” value ([5]; humans, 60 mg orally once per day for seven days) was “no significant difference in absorption”, the Cmin [5, 11] was 41.5 ng/mL and the “Ratio (Cmax/Cmin)” value [5, 11] was 6.07. For the same molecule, the “AE Back pain (Musculoskeletal and connective tissue disorders), #” value [5, 12] was 1, the “AE Bloating (Gastrointestinal disorders), #” value [5, 12] was 1 and the “AE Dizziness (Nervous system disorders), #” value [5, 12] was 1. The “AE Headache (Nervous system disorders), #” value [5, 12] was 2, the “AE Sleepiness (Nervous system disorders), #” value ([5]; humans, 60 mg, evening, fed state, N = 9, printed on two separate lines) was 1 and the “AE Dizziness (Nervous system disorders), #” value [5, 13] was 1. For the same molecule, the “AE Feeling sleepy (Nervous system disorders), #” value [5, 13] was 1, the “AE Feeling tired (General disorders and administration site conditions), #” value [5, 13] was 2 and the “AE Headache (Nervous system disorders), #” value [5, 13] was 2. For the same molecule, the “AE Sleepiness (Nervous system disorders), #” value [5, 13] was 9, the “AE Tiredness (General disorders and administration site conditions), #” value [5, 13] was 3 and the “Somnolence: duration” value [5, 14] was 10.62 h. For the same molecule, the “Somnolence: severity” value [5, 14] was “Mild”, the “Headache: duration” value [5, 15] was 13.25 h and the “Headache: onset from dose” value [5, 15] was “pre-dose”. For the same molecule, the “Headache: severity” value [5, 15] was “Mild”, the “Abdominal distension: duration” value [5, 16] was 06.50 h and the “Abdominal distension: severity” value [5, 16] was “Mild”. The “Dizziness: duration” value [5, 17] was 20.50 h, the “Dizziness: severity” value [5, 17] was “Mild” and the “Dizziness: duration” value [5, 18] was 13.00 h. For the same molecule, the “Dizziness: severity” value [5, 18] was “Mild”, the “Headache: duration” value [5, 19] was 14.50 h and the “Headache: severity” value [5, 19] was “Moderate”. For the same molecule, the “Back pain: duration” value [5, 20] was 39.25 h, the “Back pain: severity” value [5, 20] was “Mild” and the “adverse effects that interfere with sleeping” value ([5]; humans, oral administration in the evening to fed subjects) was “does not produce adverse effects that interfere with sleeping”. The pEC50 (α1β2γ2 GABAA receptors) was 6.68, the Emax (α1β2γ2 GABAA receptors; α1β2γ2 Synaptic receptors, Synchropatch electrophysiology, read-out: Emax - efficacy: % of potentiation) was 586% and the pEC50 (α4β3δ GABAA receptors) was 6.78. The “fold higher efficiency at extra synaptic vs. synaptic channels” value (α4β3δ GABAA receptors; α4β3δ vs α1β2γ2) was 3 fold.
